Data published in patent US10508113B2, “Inhibitors of tyrosine kinase 2 mediated signaling” (AbbVie Inc., priority 2018, dated 2019).

Target: T1, Jak1 (Homo sapiens, UniProt P23458)
T1 construct: endogenous in cells; host or cells: TF1 cells
Test: Jak1 (PSTAT3 TF1) alpha screen assay: inhibition of IL-6 induced phosphorylation of STAT3 in TF1 cells
Type: cell-based
Conditions: for EC50: IL-6 induced pSTAT3, TF1 cells; for Tyk2 selectivity over Jak1: calculated from tabulated EC50 data (Jak1 / Tyk2)
Outline: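 IL-6-starved TF1 cells were preincubated 30 min at 37 °C with compound (top final 25 μM, 8-point 1:5 series), then stimulated with IL-6 (100 ng/mL final) for 30 min at 37 °C. Lysates were read for pSTAT3 (Tyr705) by AlphaScreen SureFire. EC50 from percent-activity dose-response curves.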

T1 sequence (P23458 whole entry): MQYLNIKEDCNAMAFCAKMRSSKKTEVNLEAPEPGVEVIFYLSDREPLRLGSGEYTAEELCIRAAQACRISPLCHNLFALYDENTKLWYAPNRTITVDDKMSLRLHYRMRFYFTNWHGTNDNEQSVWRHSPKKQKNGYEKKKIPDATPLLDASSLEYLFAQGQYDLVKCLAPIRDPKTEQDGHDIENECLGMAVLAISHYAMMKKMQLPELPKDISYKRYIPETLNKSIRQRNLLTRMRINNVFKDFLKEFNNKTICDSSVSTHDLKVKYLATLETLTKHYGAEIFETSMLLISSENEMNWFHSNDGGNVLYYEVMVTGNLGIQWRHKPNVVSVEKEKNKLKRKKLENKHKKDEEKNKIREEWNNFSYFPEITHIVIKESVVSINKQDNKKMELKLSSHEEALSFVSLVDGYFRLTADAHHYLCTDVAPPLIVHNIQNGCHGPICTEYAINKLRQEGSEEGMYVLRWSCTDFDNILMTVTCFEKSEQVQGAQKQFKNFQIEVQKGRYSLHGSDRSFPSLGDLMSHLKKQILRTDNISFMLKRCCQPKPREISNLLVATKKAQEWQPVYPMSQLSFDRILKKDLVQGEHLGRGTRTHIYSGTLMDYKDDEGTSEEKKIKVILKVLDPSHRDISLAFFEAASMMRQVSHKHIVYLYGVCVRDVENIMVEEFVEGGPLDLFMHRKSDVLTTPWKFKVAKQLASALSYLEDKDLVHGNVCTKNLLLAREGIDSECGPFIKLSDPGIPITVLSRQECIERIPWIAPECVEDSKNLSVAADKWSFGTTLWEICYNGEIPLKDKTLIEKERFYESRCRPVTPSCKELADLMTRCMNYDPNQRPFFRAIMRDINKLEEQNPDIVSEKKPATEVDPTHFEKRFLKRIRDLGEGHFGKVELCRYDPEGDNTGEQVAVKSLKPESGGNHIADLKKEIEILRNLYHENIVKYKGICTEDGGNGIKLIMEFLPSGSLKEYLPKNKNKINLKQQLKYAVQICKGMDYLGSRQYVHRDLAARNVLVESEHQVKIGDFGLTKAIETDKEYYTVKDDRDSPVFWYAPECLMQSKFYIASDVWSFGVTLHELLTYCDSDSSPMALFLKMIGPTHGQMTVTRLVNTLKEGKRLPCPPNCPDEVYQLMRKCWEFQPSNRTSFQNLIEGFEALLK

| Structure (SMILES) | EC50 | Tyk2 selectivity over Jak1 |
| --- | --- | --- |
| COCc1cc(-c2cn(C)c3cnc(NC(C)=O)cc23)nc([C@]2([C@H](C)O)CCOC2)c1 [Example 22.3, N-(3-(6-((R)-3-((S)-1-hydroxyethyl)tetrahydrofuran-3-yl)-4-(methoxymethyl)pyridin-2-yl)-1-methyl-1H-pyrrolo[2,3-c]pyridin-5-yl)acetamide] | 12.9 µM | 88-fold |
| COCc1cc(-c2cn(C)c3cnc(NC(C)=O)cc23)nc([C@]2([C@@H](C)O)CCOC2)c1 [Example 22.4, N-(3-(6-((R)-3-((R)-1-hydroxyethyl)tetrahydrofuran-3-yl)-4-(methoxymethyl)pyridin-2-yl)-1-methyl-1H-pyrrolo[2,3-c]pyridin-5-yl)acetamide] | 27.2 µM | 243-fold |
